How the values were obtained:
[1] = molecular target: LCK (Homo sapiens, UniProt P06239); assay: Inhibition of a panel of kinases: LCK; format: biochemical; details: kinase panel, Table 2
Experimental: (§1) The degree of inhibition of a panel of kinases is determined using assays similar to the kinase assay described in Example 53.

[2] = molecular target: T1, Btk (Homo sapiens, UniProt Q06187); assay: Inhibition of a panel of kinases: Btk; format: biochemical; details: kinase panel, Table 2
Experimental: as §1

[3] = molecular target: EGFR (Homo sapiens, UniProt P00533); assay: Inhibition of a panel of kinases: EGFR; format: biochemical; details: kinase panel, Table 2
Chain of EGFR (P00533 25-1210, species assumed): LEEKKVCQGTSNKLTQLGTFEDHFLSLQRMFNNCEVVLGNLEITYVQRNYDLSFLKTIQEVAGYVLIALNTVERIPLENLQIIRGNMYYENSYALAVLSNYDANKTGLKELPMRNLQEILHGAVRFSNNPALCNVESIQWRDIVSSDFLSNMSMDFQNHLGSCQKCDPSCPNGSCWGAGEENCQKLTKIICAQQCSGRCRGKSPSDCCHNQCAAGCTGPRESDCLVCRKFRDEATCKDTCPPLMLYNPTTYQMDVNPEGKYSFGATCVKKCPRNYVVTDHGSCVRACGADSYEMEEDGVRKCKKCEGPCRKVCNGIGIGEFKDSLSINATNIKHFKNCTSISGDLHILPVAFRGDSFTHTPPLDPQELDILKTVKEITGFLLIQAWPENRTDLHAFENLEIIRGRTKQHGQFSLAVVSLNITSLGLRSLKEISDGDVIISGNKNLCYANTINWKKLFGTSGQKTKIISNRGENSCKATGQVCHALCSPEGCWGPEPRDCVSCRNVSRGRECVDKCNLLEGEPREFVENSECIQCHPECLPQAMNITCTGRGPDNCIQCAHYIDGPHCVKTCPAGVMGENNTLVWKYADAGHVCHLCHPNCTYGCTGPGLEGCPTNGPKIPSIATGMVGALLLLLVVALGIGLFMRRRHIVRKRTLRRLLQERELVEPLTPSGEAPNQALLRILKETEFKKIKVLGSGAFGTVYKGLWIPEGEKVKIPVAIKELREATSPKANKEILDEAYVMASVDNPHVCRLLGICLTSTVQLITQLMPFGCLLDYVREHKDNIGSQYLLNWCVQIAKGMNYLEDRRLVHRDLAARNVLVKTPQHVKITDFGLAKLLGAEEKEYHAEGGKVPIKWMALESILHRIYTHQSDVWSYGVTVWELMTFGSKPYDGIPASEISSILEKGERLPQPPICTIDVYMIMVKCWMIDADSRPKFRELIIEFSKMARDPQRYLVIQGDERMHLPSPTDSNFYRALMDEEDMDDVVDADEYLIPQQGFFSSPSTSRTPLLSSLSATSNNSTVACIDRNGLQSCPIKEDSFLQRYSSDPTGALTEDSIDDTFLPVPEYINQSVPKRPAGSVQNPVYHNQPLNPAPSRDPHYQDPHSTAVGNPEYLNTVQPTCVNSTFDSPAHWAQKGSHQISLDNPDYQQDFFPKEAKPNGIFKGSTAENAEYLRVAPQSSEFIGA
Experimental: as §1

[4] = molecular target: T1, Btk; assay: Btk in vitro inhibitory activity (Method A, B or C); format: biochemical; design: purified from insect cells as a full-length construct containing a N-terminal 6×-His tag; His6 (N); made in house; host or cells: insect cells (baculovirus, Sf21); details: one of the methods of Example 53a, 53b, 53c
Experimental: Btk kinase activity is determined using a time-resolved fluorescence resonance energy transfer (TR-FRET) methodology. Measurements are performed in a reaction volume of 50 μL using 96-well assay plates. Kinase enzyme, inhibitor, ATP (at the Km for the kinase), and 1 μM peptide substrate (Biotin-AVLESEEELYSSARQ-NH2 (SEQ ID NO: 1)) are incubated in a reaction buffer composed of 20 mM Tris, 50 mM NaCl, MgCl2 (5-25 mM depending on the kinase), MnCl2 (0-10 mM), 1 mM DTT, 0.1 mM EDTA, 0.01% bovine serum albumin, 0.005% Tween-20, and 10% DMSO at pH 7.4 for one hour. The reaction is quenched by the addition of 1.2 equivalents of EDTA (relative to divalent cation) in 25 μL of 1× Lance buffer (Perkin-Elmer). Streptavidin-APC (Perkin-Elmer) and Eu-labeled p-Tyr100 antibody (Perkin-Elmer) in 1× Lance buffer are added in a 25 μL volume to give final concentrations of 100 nM and 2.5 nM, respectively, and the mixture is allowed to incubate for one hour. The TR-FRET signal is measured on a multimode plate reader with an excitation wavelength (λEx) of 330 nm and detection wavelengths (λEm) of 615 and 665 nm. Activity is determined by the ratio of the fluorescence at 665 nm to that at 615 nm. For each compound, enzyme activity is measured at various concentrations of compound. Negative control reactions are performed in the absence of inhibitor in replicates of six, and two no-enzyme controls are used to determine baseline fluorescence levels. Inhibition constants, Ki(app), ware obtained using the program BatchKi (Kuzmic et al. (2000), Anal. Biochem. 286:45-50). IC50s are obtained according to the equation: IC50={Ki(app)/1+[ATP]/Km^ATP)}+[E]total/2;
For all kinases, [ATP]=Km^ATP, [Btk]total=0.5 nM and [Lck]total=6 nM.
Kinase activity is measured in vitro using electrophoretic mobility shift assay. The kinase reactions are assembled in a total volume of 25 μL in 384 well plates. The reactions comprise: BTK enzyme (1 nM, N-terminal His6-tagged, recombinant, full-length, human BTK purified from baculovirus Sf21 insect cell system), inhibitor, ATP (16 μM, the apparent Km for the kinase), fluorescently labeled peptide substrate (1 μM, FAM-GEEPLYWSFPAKKK-NH2 (SEQ ID NO: 2)) in a reaction buffer composed of 100 mM HEPES, pH7.5, 5 mM MgCl2 1 mM DTT, 0.1% bovine serum albumin, 0.01% Triton X-100, and 1% DMSO. The reaction is incubated for one hour and is quenched by the addition of 45 μL of termination buffer (100 mM HEPES, pH7.5, 0.01% Triton X-100, 30 mM EDTA). The terminated reactions are analyzed using 12 channel LabChip® 3000 microfluidic detection instrument (Caliper Life Sciences). The enzymatic phosphorylation of the peptide results in a change in net charge, enabling electrophoretic separation of product from substrate peptide. As substrate and product peptides are separated, two peaks of fluorescence are observed. Change in the relative fluorescence intensity of the substrate and product peaks is the parameter measured, reflecting enzyme activity. In the presence of an inhibitor, the ratio between product and substrate is altered: the signal of the product decreases, while the signal of the substrate increases.
Activity in each sample is determined as the product to sum ratio (PSR):P/(S+P), where P is the peak height of the product peptide and S is the peak height of the substrate peptide. For each compound, enzyme activity is measured at various concentrations (12 concentrations of compound spaced by 3× dilution intervals). Negative control samples (0%−inhibition in the absence of inhibitor) and positive control samples (100%−inhibition, in the presence of 20 mM EDTA) are assembled in replicates of four and are used to calculate %−inhibition values for each inhibitor at each concentration. Percent inhibition (Pinh) is determined using following equation: […]

[5] = system: lymphoma cell line DOHH2; assay: Lymphoma cell assay (anti-IgG stimulated CD69, FACS); format: cell-based; details: DOHH-2; DOHH2 cells stimulated with anti-human IgG F(ab')2 10 μg/mL, 14 to 20 hours; read-out: IC50 (50% decrease in CD69 fluorescence on cell surface)
Experimental: Cells of lymphoma cell line DOHH2 were seeded in 96-well plates in standard growth media (RPMI+10% fetal calf serum). Compounds were added in an 8-point dilution series ranging from 10 to 0.004 μM with DMSO at 0.1% final concentration in all wells. Cells were then stimulated with a F(ab′)2 fragment of anti-human IgG at 10 μg/mL for 14 to 20 hours before staining for FACS analysis. Cells were incubated with fluorescent-labeled anti-CD69 antibody for 30 minutes on ice in FACS buffer and analyzed on the FACSCanto flowcytometry. The IC50, the concentration that results in a 50% decrease in intensity of fluorescence detected on the cell surface, was calculated using the Prizm software to fit the dose-response curve.

T1 sequence (Q06187 whole entry): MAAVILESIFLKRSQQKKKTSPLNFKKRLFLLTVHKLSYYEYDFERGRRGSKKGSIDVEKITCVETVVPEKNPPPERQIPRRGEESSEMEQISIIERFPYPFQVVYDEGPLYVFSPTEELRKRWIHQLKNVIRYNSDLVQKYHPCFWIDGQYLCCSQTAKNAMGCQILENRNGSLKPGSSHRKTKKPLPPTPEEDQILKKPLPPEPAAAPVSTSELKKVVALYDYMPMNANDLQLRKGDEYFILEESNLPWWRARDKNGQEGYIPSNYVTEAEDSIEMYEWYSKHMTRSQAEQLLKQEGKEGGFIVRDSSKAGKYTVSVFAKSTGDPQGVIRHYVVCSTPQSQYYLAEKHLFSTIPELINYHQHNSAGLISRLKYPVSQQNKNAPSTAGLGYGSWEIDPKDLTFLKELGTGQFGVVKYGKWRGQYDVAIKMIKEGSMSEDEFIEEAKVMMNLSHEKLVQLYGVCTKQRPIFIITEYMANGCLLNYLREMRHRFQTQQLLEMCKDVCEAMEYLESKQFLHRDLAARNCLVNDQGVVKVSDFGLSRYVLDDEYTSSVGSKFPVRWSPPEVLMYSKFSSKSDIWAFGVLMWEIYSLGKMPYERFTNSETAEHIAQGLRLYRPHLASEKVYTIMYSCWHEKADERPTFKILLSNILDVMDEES
Chain of LCK (P06239 whole entry, species assumed): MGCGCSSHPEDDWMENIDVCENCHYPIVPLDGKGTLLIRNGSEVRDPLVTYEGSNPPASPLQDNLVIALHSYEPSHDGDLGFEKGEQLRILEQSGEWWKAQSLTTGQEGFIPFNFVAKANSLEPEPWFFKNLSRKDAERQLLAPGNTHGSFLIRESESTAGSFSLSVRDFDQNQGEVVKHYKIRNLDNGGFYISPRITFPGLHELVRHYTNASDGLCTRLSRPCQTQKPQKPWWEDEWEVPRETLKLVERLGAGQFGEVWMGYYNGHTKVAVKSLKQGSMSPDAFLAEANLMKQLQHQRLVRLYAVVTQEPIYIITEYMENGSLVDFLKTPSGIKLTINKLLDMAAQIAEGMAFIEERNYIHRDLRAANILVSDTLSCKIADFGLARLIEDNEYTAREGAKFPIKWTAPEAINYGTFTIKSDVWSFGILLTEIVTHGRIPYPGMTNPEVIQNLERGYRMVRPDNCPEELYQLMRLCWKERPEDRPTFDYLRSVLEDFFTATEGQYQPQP

C=CC(=O)N1CC[C@@H](n2nc(-c3ccc(C(=O)Nc4cc(C(F)(F)F)ccn4)cc3)c3c(N)ncnc32)C1 [Compound ID 21, (R)-4-(1-(1-acryloylpyrrolidin-3-yl)-4-amino-1H-pyrazolo[3,4-d]pyrimidin-3-yl)-N-(4-(trifluoromethyl)pyridin-2-yl)benzamide]
IC50 [1]: 10 to 100 nM | IC50 [2]: ≤ 10 nM | IC50 [3]: ≤ 10 nM | IC50 [4]: ≤ 10 nM | IC50 [5]: < 5 nM

C=CC(=O)N1CC[C@@H](n2nc(-c3ccc(C(=O)Nc4cc(CCC)ccn4)cc3)c3c(N)ncnc32)C1 [Compound ID 30, (R)-4-(1-(1-acryloylpyrrolidin-3-yl)-4-amino-1H-pyrazolo[3,4-d]pyrimidin-3-yl)-N-(4-propylpyridin-2-yl)benzamide]
IC50 [4]: ≤ 10 nM | IC50 [5]: < 5 nM

C=CC(=O)N1CCC[C@@H](n2nc(-c3ccc(C(=O)Nc4cc(C)ccn4)cc3)c3c(N)ncnc32)C1 [Compound ID 26, (R)-4-(1-(1-acryloylpiperidin-3-yl)-4-amino-1H-pyrazolo[3,4-d]pyrimidin-3-yl)-N-(4-methylpyridin-2-yl)benzamide]
IC50 [4]: ≤ 10 nM | IC50 [5]: < 5 nM

C=CC(=O)N1CC[C@@H](n2nc(-c3ccc(C(=O)Nc4cc(C)ccn4)cc3)c3c(N)ncnc32)C1 [Compound ID 20, (R)-4-(1-(1-acryloylpyrrolidin-3-yl)-4-amino-1H-pyrazolo[3,4-d]pyrimidin-3-yl)-N-(4-methylpyridin-2-yl)benzamide]
IC50 [1]: 10 to 100 nM | IC50 [2]: ≤ 10 nM | IC50 [3]: ≤ 10 nM | IC50 [4]: ≤ 10 nM | IC50 [5]: < 5 nM

C=CC(=O)N1CC[C@@H](n2nc(-c3ccc(C(=O)Nc4cc(C(C)C)ccn4)cc3)c3c(N)ncnc32)C1 [Compound ID 23, (R)-4-(1-(1-acryloylpyrrolidin-3-yl)-4-amino-1H-pyrazolo[3,4-d]pyrimidin-3-yl)-N-(4-isopropylpyridin-2-yl)benzamide]
IC50 [4]: ≤ 10 nM | IC50 [5]: < 5 nM

C=CC(=O)N1CCC[C@@H](n2nc(-c3ccc(C(=O)Nc4cc(C(F)(F)F)ccn4)cc3)c3c(N)ncnc32)C1 [Compound ID 27, (R)-4-(1-(1-acryloylpiperidin-3-yl)-4-amino-1H-pyrazolo[3,4-d]pyrimidin-3-yl)-N-(4-(trifluoromethyl)pyridin-2-yl)benzamide]
IC50 [4]: ≤ 10 nM | IC50 [5]: < 5 nM

C=CC(=O)N1CCC[C@@H](n2nc(-c3ccc(C(=O)Nc4cc(CCC)ccn4)cc3)c3c(N)ncnc32)C1 [Compound ID 31, (R)-4-(1-(1-acryloylpiperidin-3-yl)-4-amino-1H-pyrazolo[3,4-d]pyrimidin-3-yl)-N-(4-propylpyridin-2-yl)benzamide]
IC50 [4]: ≤ 10 nM | IC50 [5]: < 5 nM
